The source of these data is US20250276965A1, “PROCESS FOR THE PREPARATION OF ANTIBACTERIAL COMPOUNDS” (DISCUVA LIMITED, priority 2021, published 2025).

The subject of series [1] is Klebsiella pneumoniae ATCC 43816. The series is described as follows: Proof-of-concept murine respiratory infection model, IV bolus. The series is classed as in vivo. Particulars: CD-1 mice, 20 mg/kg IV bolus TID, 26 h. How it is done:
Compound (I) and comparative compound (III) were evaluated in proof-of-concept studies in murine models for the treatment of a respiratory infection with Gram-negative bacteria of the order Enterobacterales, a bacteraemia or bloodstream infection with Gram-negative bacteria of the order Enterobacterales, and a urinary tract infection with Gram-negative bacteria of the order Enterobacterales. Each dot, triangle or square indicator represents a single mouse. LOD refers to the limit of detection of the bacteria. […] Each of the proof-of-concept studies was carried out separately. By vehicle is meant pharmaceutically acceptable carrier or excipient. For the proof-of-concept study for the treatment of a respiratory infection caused or exacerbated by Gram-negative bacteria of the order Enterobacterales, CD-1 mice were infected with Klebsiella pneumoniae ATCC 43816. Two hours after infection (‘pre-treatment’ in FIG. 2), a vehicle (20% hydroxypropyl β cyclodextrin) containing no compound (I) or comparative compound (III), or a vehicle (20% hydroxypropyl β cyclodextrin) containing compound (I) or comparative compound (III), was administered by IV bolus at 20 mg/kg, TID (8 hrs apart), over one day.

In series [2] the test system is E. coli BAA-2469 (NDM-1 positive). The series is described as follows: Proof-of-concept murine bacteraemia or bloodstream infection model, IV bolus. The series is classed as in vivo. Particulars: CD-1 mice, single dose IV bolus 20 mg/kg. The method, then:
Compound (I) and comparative compound (III) were evaluated in proof-of-concept studies in murine models for the treatment of a respiratory infection with Gram-negative bacteria of the order Enterobacterales, a bacteraemia or bloodstream infection with Gram-negative bacteria of the order Enterobacterales, and a urinary tract infection with Gram-negative bacteria of the order Enterobacterales. Each dot, triangle or square indicator represents a single mouse. LOD refers to the limit of detection of the bacteria. […] Each of the proof-of-concept studies was carried out separately. By vehicle is meant pharmaceutically acceptable carrier or excipient.
For the proof-of-concept study for the treatment of a bacteraemia or bloodstream infection with Gram-negative bacteria of the order Enterobacterales, CD-1 mice were infected with human urine isolate E. coli BAA-2469 (NDM-1 positive). One hour after infection (‘pre-treatment’ in FIG. 3), a vehicle (20% hydroxypropyl β cyclodextrin) containing no compound (I) or comparative compound (III), or a vehicle (20% hydroxypropyl β cyclodextrin) containing compound (I) or comparative compound (III), was administered by as a single dose IV bolus at 20 mg/kg.

The subject of series [3] is Klebsiella pneumonia (100 isolates). The series is described as follows: MIC90 by broth microdilution (EUCAST), 100 isolates of Klebsiella pneumonia. Conditions: test concentrations 0.03-64 μg/mL. In kind it is cell-based. The method, then: (§1) Minimum Inhibitory Concentration (MIC90) versus 100 isolates of Escherichia coli and Klebsiella pneumonia were determined. The Minimum Inhibitory Concentration at which 90% of the isolates (strains) are inhibited (MIC90) were measured by broth microdilution in line with EUCAST susceptibility testing standards (www.eucast.org). Bacterial inocula were prepared at ca 1×10^6 CFU/mL by diluting 100-fold a 0.5 McFarland suspension. Antibacterial panels containing 50 μl of antibacterial solutions at 2×the final concentrations were diluted 2-fold with 50 μl of inoculum to give a final inoculum of ca 5×10^5 CFU/ml and desired test concentrations of antibacterial agents (0.03-64 μg/mL). The plates were incubated according to the guidelines of the Clinical and Laboratory Standards Institute (Clinical and Laboratory Standards Institute. Methods for Dilution Antimicrobial Susceptibility Tests for Bacteria That Grow Aerobically; Approved Standard-Eleventh Edition, CLSI document […], 11 Jan. 2018). The MIC90 (μg/ml) is the MIC value at which greater than or equal to 90% of the isolates (strains) within a test population are inhibited.
On the technique in general: Broth dilution looks for growth in wells or tubes with falling amounts of substance.

For series [4], the system named is Proteus spp. (10 isolates). The series is described as follows: MIC by broth microdilution versus Proteus spp. isolates. In kind it is cell-based. How it is done: as §1, with “inhibited. Minimum Inhibitory Concentrations (MICs) versus Proteus spp. and Providencia spp. were determined for compound (I) and comparative compound (III) using the methodology outlined above for the 100 isolates of Escherichia coli and Klebsiella pneumonia.” for “inhibited.”

The subject of series [5] is E. coli UTI89. Briefly: Proof-of-concept murine urinary tract infection model, IV bolus. In kind it is in vivo. Particulars: IV bolus 20 mg/kg TID over 3 days, 96 h. How it is done: Compound (I) and comparative compound (III) were evaluated in proof-of-concept studies in murine models for the treatment of a respiratory infection with Gram-negative bacteria of the order Enterobacterales, a bacteraemia or bloodstream infection with Gram-negative bacteria of the order Enterobacterales, and a urinary tract infection with Gram-negative bacteria of the order Enterobacterales. Each dot, triangle or square indicator represents a single mouse. LOD refers to the limit of detection of the bacteria. […] Each of the proof-of-concept studies was carried out separately. By vehicle is meant pharmaceutically acceptable carrier or excipient. For the proof-of-concept study for the treatment of a urinary tract infection with Enterobacterales, female C3H/HeN mice were infected with E. coli UTI89. Twenty-four hours after infection (‘pre-treatment’ in FIGS. 4a-c), a vehicle (20% hydroxypropyl β cyclodextrin) containing no compound (I) or comparative compound (III), or a vehicle (20% hydroxypropyl β cyclodextrin) containing compound (I) or comparative compound (III), was administered by IV bolus of 20 mg/kg, TID (8 hrs apart), over 3 days.

Series [6] concerns Providencia spp. (10 isolates). Briefly: MIC by broth microdilution versus Providencia spp. isolates. The series is classed as cell-based. How it is done:
as §1, with “inhibited. Minimum Inhibitory Concentrations (MICs) versus Proteus spp. and Providencia spp. were determined for compound (I) and comparative compound (III) using the methodology outlined above for the 100 isolates of Escherichia coli and Klebsiella pneumonia.” for “inhibited.”

In series [7] the test system is 44 ligands (including receptors, transporters, ion channels, enzymes and kinases). Briefly: In vitro safety pharmacology binding assays (CEREP profile). Particulars: 10 μM, 44 ligands tested, radioligand binding. How it is done: In vitro pharmacology binding assays were carried out for compound (I), comparative compound (II) and comparative compound (III) to evaluate the percentage of inhibition against 44 ligands (including receptors, transporters, ion channels, enzymes and kinases) at a concentration of 10 μM of compound (I), comparative compound (II) or comparative compound (III). Compound binding was calculated as a percentage of inhibition of the binding of a radioactively labelled ligand specific for each target. Results showing an inhibition higher than 50% are considered to represent discernible effects of compound (I), comparative compound (II) or comparative compound (III). […] The in vitro pharmacology binding assays for compound (I) and comparative compounds (II) and (III) was carried out separately over different days, and compared in FIGS. 1a, 1b, 1c, and 1d.

The test system of series [8] is E. coli UT189. Briefly: Further proof-of-concept murine urinary tract infection model, intravenous infusion. The series is classed as in vivo. Particulars: 96 h. How it is done: Compound (I) was evaluated in further proof-of-concept studies in murine models for the treatment of a respiratory infection with Gram-negative bacteria of the order Enterobacterales, and a urinary tract infection with Gram-negative bacteria of the order Enterobacterales. Each dot, triangle or square indicator represents a single mouse. LOD refers to the limit of detection of the bacteria. […] Each of the proof-of-concept studies was carried out separately. By vehicle is meant pharmaceutically acceptable excipient or carrier. For the further proof-of-concept study for the treatment of a urinary tract infection with Enterobacterales, female C3H/HeN mice were infected with E. coli UT189. Twenty-four hours after infection (‘pre-treatment’ in FIGS. 6a-c), mice were either treated with a vehicle control (20% hydroxypropyl β cyclodextrin) containing no compound (I), or a vehicle (20% hydroxypropyl β cyclodextrin) containing compound (I), administered by intravenous infusion for 1 hour (QD) with a dose of 20 mg/kg of compound (I). For some mice who received vehicle containing compound (I), an additional 1-hour continuous intravenous infusion was administered 5 hours after the time at which the first administration begun (BID, 5 hrs apart). The once or twice daily administration was continued for three days. For QD, administration took place between 24 to 25 hours, 48 to 49 hours, and 72 to 73 hours after infection, and for BID, administration took place between 24 to 25 hours, 29 to 30 hours, 48 to 49 hours, 53 to 54 hours, 72 to 73 hours and 77 to 78 hours after infection.

Series [9] relates to Escherichia coli (100 isolates). Briefly: MIC90 by broth microdilution (EUCAST), 100 isolates of Escherichia coli. The series is classed as cell-based. Conditions: test concentrations 0.03-64 μg/mL. How it is done:
as §1

Setting [10] is: both QD and BID daily administration.

`Cc1cnccc1-c1[nH]c(N)nc1-c1ccc2c(c1)N(C(=O)CN)CCO2` [Comparative Compound (III), reference compound]: the “CFU value in the lung relative to stasis level” value in series [1] is “relatively close to the stasis level”. Further, the “CFU value in the blood relative to stasis level” value in [2] (9 h) is on record as “on or above the stasis level”.
On to `Cc1cnccc1-c1[nH]c(N)nc1-c1ccc2c(c1)N(C(=O)C(C)(C)N)CCO2` [Compound (I), 2-amino-1-(6-(2-amino-5-(3-methylpyridin-4-yl)-1H-imidazol-4-yl)-2,3-dihydro-4H-benzo[b][1,4]oxazin-4-yl)-2-methylpropan-1-one], for which the “MIC Range Klebsiella pneumonia (100 isolates)” value in series [3] fell in the range of 0.25 to 8.00 µg/mL. Besides, the “MIC Range Proteus spp. (10 isolates)” value in series [4] lay in the range of 8 to 32 µg/mL. In addition, in [5], the “more efficacious than comparative compound (III) in reducing the CFU in the bladder” value is 3 log and the “more efficacious than comparative compound (III) in reducing the CFU in the urine” value is reported as 3 log. Besides, the “bacterial burden in the urine at end of study” value in series [5] (female C3H/HeN mice) was “below the limit of detection (LOD)”. Further, the “MIC Range Providencia spp. (10 isolates)” value in series [6] fell in the range of 0.5 to 16 µg/mL. The “ligands with inhibition higher than 50%” value in [7] is given as “only a single ligand”. The “bacterial burden in the kidney at end of study” value in series [8] (BID administration) is “below the limit of detection (LOD)”. Moreover, in series [8] (setting [10]), the “bacterial burden in the bladder at end of study” value is “below the limit of detection (LOD)” and the “bacterial burden in the urine at end of study” value is recorded as “below the limit of detection (LOD)”. In series [2] (9 h after initial infection), the “bacterial burden in the blood at end of study” value was “below the limit of detection (LOD)”. The “MIC Range Escherichia coli (100 isolates)” value in [9] is 0.12 to 4.00 µg/mL.
